Legend:
P. falciparum FTase = P. falciparum FTase (Plasmodium falciparum, UniProt Q5EI73+Q5EI74); test: P. falciparum FTase activity assay as described in Glenn et al., 2006; assay type: biochemical; settings: for Selectivity: IC50 for hFTase divided by IC50 for PfFTase
Human FTase = Human FTase (Homo sapiens, UniProt P49354+P49356); settings: legend of Figure 4C; mammalian enzyme
[1] = read-out: inhibition of P. falciparum FTase activity

Cc1ccccc1S(=O)(=O)N(CCN(Cc1cncn1C)c1ccc(C#N)cc1)CC1CCN(C(=O)OC(C)(C)C)CC1 [Compound 5, N-(N-tert-Butoxycarbonylpiperidin-4-ylmethyl), N-({2-[(4-cyanophenyl)-(3-methyl-3H-imidazol-4-ylmethyl)-amino]-ethyl}) 2-methylbenzenesulfonamide]
inhibition at 0.0005 µM (P. falciparum FTase; [1]): 20% | inhibition at 0.005 µM (P. falciparum FTase; [1]): 76%

Cn1cncc1CN(CCN(CC1CCN(C(=O)OC(C)(C)C)CC1)S(=O)(=O)c1ccccc1-c1cccc(CCC(=O)O)c1)c1ccc(C#N)cc1 [Compound 10, N-(N-tert-Butoxycarbonylpiperidin-4-ylmethyl), N-({2-[(4-cyanophenyl)-(3-methyl-3H-imidazol-4-ylmethyl)-amino]-ethyl}) (3′-(2-carboxyethyl)-biphenyl)-2-sulfonamide]
IC50 (in words) (Human FTase): sub-micromolar | Selectivity (P. falciparum FTase): 11

Cc1ccccc1S(=O)(=O)N(CCN(Cc1cncn1C)c1ccc(C#N)cc1)Cc1ccccc1 [Compound 7, N-Benzyl, N-{2-[(4-cyanophenyl)-(3-methyl-3H-imidazol-4-ylmethyl)-amino]-ethyl} 2-methyl-benzenesulfonamide]
Selectivity (P. falciparum FTase): 32
